Data: the NIST ThermoML archive (doi:10.1007/s10765-006-0100-z)
Numbers after ± are expanded uncertainties.

Assays:
[1] = 101 kPa, Liquid; for mass density: Vibrating tube method
[2] = xn = mol fraction of the nth substance listed; conditions: 101 kPa, Liquid; for mass density: Vibrating tube method

CC(C)CCl [1-chloro-2-methylpropane]
[1]
Conditions	kinematic viscosity [m2/s]	mass density [kg/m3]
298.15 K	4.93e-07 ± 7.3e-09	871.13 ± 2
313.15 K	4.29e-07 ± 6.6e-09	853.51 ± 2

CC(C)CCl [1-chloro-2-methylpropane] + C1CCOCC1
[2]
Conditions	kinematic viscosity [m2/s]	mass density [kg/m3]
298.15 K, x2 = 0	4.93e-07 ± 7.3e-09	871.13 ± 2
298.15 K, x2 = 0.048	–	871.69 ± 2
298.15 K, x2 = 0.054	5.06e-07 ± 7.5e-09	–
298.15 K, x2 = 0.1069	5.19e-07 ± 7.6e-09	–
298.15 K, x2 = 0.1084	–	872.39 ± 2
298.15 K, x2 = 0.2033	5.46e-07 ± 7.9e-09	–
298.15 K, x2 = 0.212	–	873.53 ± 2
298.15 K, x2 = 0.29	–	874.38 ± 2
298.15 K, x2 = 0.311	5.78e-07 ± 8.3e-09	–
298.15 K, x2 = 0.3951	–	875.37 ± 2
298.15 K, x2 = 0.4126	6.11e-07 ± 8.7e-09	–
298.15 K, x2 = 0.504	6.45e-07 ± 9.1e-09	–
298.15 K, x2 = 0.5062	–	876.3 ± 2
298.15 K, x2 = 0.595	6.82e-07 ± 9.5e-09	–
298.15 K, x2 = 0.6273	–	877.23 ± 2
298.15 K, x2 = 0.6897	–	877.63 ± 2
298.15 K, x2 = 0.6954	7.27e-07 ± 1e-08	–
298.15 K, x2 = 0.8028	7.83e-07 ± 1.1e-08	–
298.15 K, x2 = 0.8111	–	878.26 ± 2
298.15 K, x2 = 0.9066	8.46e-07 ± 1.2e-08	–
298.15 K, x2 = 0.9088	–	878.68 ± 2
298.15 K, x2 = 0.952	–	878.79 ± 2
298.15 K, x2 = 0.9578	8.8e-07 ± 1.2e-08	–
313.15 K, x2 = 0	4.29e-07 ± 6.6e-09	853.51 ± 2
313.15 K, x2 = 0.0432	–	854.17 ± 2
313.15 K, x2 = 0.054	4.4e-07 ± 6.7e-09	–
313.15 K, x2 = 0.0934	–	854.93 ± 2
313.15 K, x2 = 0.1069	4.51e-07 ± 6.8e-09	–
313.15 K, x2 = 0.1923	–	856.35 ± 2
313.15 K, x2 = 0.2033	4.72e-07 ± 7.1e-09	–
313.15 K, x2 = 0.3025	–	857.83 ± 2
313.15 K, x2 = 0.311	4.97e-07 ± 7.4e-09	–
313.15 K, x2 = 0.406	–	859.08 ± 2
313.15 K, x2 = 0.4126	5.23e-07 ± 7.7e-09	–
313.15 K, x2 = 0.5018	–	860.14 ± 2
313.15 K, x2 = 0.504	5.5e-07 ± 8e-09	–
313.15 K, x2 = 0.595	5.8e-07 ± 8.3e-09	–
313.15 K, x2 = 0.6079	–	861.19 ± 2
313.15 K, x2 = 0.6954	6.16e-07 ± 8.8e-09	–
313.15 K, x2 = 0.7238	–	862.24 ± 2
313.15 K, x2 = 0.7895	–	862.78 ± 2
313.15 K, x2 = 0.8028	6.6e-07 ± 9.3e-09	–
313.15 K, x2 = 0.8874	–	863.42 ± 2
313.15 K, x2 = 0.9066	7.07e-07 ± 9.8e-09	–
313.15 K, x2 = 0.9463	–	863.68 ± 2
313.15 K, x2 = 0.9578	7.33e-07 ± 1e-08	–

CCCCCl [1-chlorobutane]
[1]
Conditions	kinematic viscosity [m2/s]	mass density [kg/m3]
298.15 K	4.78e-07 ± 7.1e-09	880.69 ± 2
313.15 K	4.21e-07 ± 6.5e-09	863.82 ± 2

CCCCCl [1-chlorobutane] + C1CCOCC1
[2]
Conditions	kinematic viscosity [m2/s]	mass density [kg/m3]
298.15 K, x2 = 0	4.78e-07 ± 7.1e-09	880.69 ± 2
298.15 K, x2 = 0.0243	4.84e-07 ± 7.2e-09	–
298.15 K, x2 = 0.0521	–	880.67 ± 2
298.15 K, x2 = 0.1006	–	880.66 ± 2
298.15 K, x2 = 0.1039	5.02e-07 ± 7.4e-09	–
298.15 K, x2 = 0.1949	–	880.62 ± 2
298.15 K, x2 = 0.2058	5.29e-07 ± 7.7e-09	–
298.15 K, x2 = 0.2549	–	880.59 ± 2
298.15 K, x2 = 0.307	5.59e-07 ± 8.1e-09	–
298.15 K, x2 = 0.3774	–	880.48 ± 2
298.15 K, x2 = 0.3984	5.89e-07 ± 8.4e-09	–
298.15 K, x2 = 0.5035	–	880.26 ± 2
298.15 K, x2 = 0.5077	6.3e-07 ± 8.9e-09	–
298.15 K, x2 = 0.5948	–	880.06 ± 2
298.15 K, x2 = 0.6038	6.69e-07 ± 9.4e-09	–
298.15 K, x2 = 0.661	–	879.87 ± 2
298.15 K, x2 = 0.7064	7.18e-07 ± 1e-08	–
298.15 K, x2 = 0.7893	–	879.49 ± 2
298.15 K, x2 = 0.7994	7.68e-07 ± 1.1e-08	–
298.15 K, x2 = 0.9058	8.37e-07 ± 1.1e-08	–
298.15 K, x2 = 0.9203	–	879.07 ± 2
298.15 K, x2 = 0.9498	8.7e-07 ± 1.2e-08	–
298.15 K, x2 = 0.9666	–	878.91 ± 2
313.15 K, x2 = 0	4.21e-07 ± 6.5e-09	863.82 ± 2
313.15 K, x2 = 0.0243	4.28e-07 ± 6.5e-09	–
313.15 K, x2 = 0.0348	–	863.98 ± 2
313.15 K, x2 = 0.0899	–	864.19 ± 2
313.15 K, x2 = 0.1039	4.42e-07 ± 6.7e-09	–
313.15 K, x2 = 0.1717	–	864.39 ± 2
313.15 K, x2 = 0.2058	4.63e-07 ± 7e-09	–
313.15 K, x2 = 0.2933	–	864.54 ± 2
313.15 K, x2 = 0.307	4.86e-07 ± 7.2e-09	–
313.15 K, x2 = 0.3984	5.09e-07 ± 7.5e-09	–
313.15 K, x2 = 0.413	–	864.6 ± 2
313.15 K, x2 = 0.4926	–	864.61 ± 2
313.15 K, x2 = 0.5077	5.4e-07 ± 7.9e-09	–
313.15 K, x2 = 0.6026	–	864.59 ± 2
313.15 K, x2 = 0.6038	5.72e-07 ± 8.2e-09	–
313.15 K, x2 = 0.7064	6.1e-07 ± 8.7e-09	–
313.15 K, x2 = 0.7085	–	864.52 ± 2
313.15 K, x2 = 0.7994	6.49e-07 ± 9.2e-09	–
313.15 K, x2 = 0.8006	–	864.45 ± 2
313.15 K, x2 = 0.899	–	864.22 ± 2
313.15 K, x2 = 0.9058	7.01e-07 ± 9.8e-09	–
313.15 K, x2 = 0.9498	7.25e-07 ± 1e-08	–
313.15 K, x2 = 0.9724	–	863.88 ± 2

CC(C)(C)Cl [2-chloro-2-methylpropane]
[1]
Conditions	kinematic viscosity [m2/s]	mass density [kg/m3]
298.15 K	5.68e-07 ± 8.2e-09	836.45 ± 2
313.15 K	4.77e-07 ± 7.1e-09	818.31 ± 2
